Results as given in ChEMBL document CHEMBL1141493, “Synthesis and structure-activity relationships of heteroaryl substituted-3,4-diamino-3-cyclobut-3-ene-1,2-dione CXCR2/CXCR1 receptor antagonists” (Bioorg Med Chem Lett, 2008).
Active and inactive are the calls of the source. No cut-off for these calls is given here.

Tests used:
[1] = biological target: T1, C-X-C chemokine receptor type 2 (Homo sapiens, UniProt P25025); assay: Inhibition of CXCR2
T1 sequence (P25025 whole entry): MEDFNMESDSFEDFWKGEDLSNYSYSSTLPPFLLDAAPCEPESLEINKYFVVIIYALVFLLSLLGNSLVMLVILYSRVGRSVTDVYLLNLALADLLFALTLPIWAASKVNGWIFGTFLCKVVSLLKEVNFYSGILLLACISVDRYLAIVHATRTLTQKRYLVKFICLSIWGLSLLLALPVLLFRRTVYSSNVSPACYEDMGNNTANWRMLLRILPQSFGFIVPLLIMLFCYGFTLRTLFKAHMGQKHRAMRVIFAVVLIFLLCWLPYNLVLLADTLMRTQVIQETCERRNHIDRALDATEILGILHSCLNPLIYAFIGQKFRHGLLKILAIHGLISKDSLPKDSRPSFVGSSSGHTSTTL

[2] = biological target: T2, C-X-C chemokine receptor type 1 (Homo sapiens, UniProt P25024); assay: Inhibition of CXCR1
T2 sequence (P25024 whole entry): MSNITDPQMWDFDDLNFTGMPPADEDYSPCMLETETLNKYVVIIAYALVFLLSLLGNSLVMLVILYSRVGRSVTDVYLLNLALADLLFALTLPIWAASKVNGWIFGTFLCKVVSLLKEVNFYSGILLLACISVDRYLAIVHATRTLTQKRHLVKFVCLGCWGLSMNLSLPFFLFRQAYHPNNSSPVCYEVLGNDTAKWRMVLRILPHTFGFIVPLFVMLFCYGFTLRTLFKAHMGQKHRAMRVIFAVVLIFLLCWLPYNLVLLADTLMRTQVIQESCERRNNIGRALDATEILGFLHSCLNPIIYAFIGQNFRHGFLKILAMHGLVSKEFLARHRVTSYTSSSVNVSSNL

[3] = AUC in rat at 10 mg/kg, po; assay type: ADME, organism-based; set-up: dose 10 mg/kg, route oral; conditions: plasma
[4] = biological target: T3, C-X-C chemokine receptor type 1 (Homo sapiens) (UniProt P25024); assay: Inhibition of CXCR1 at >10000 nM
T3 sequence (whole entry): T2 sequence (P25024 whole entry)

[5] = biological target: T3, C-X-C chemokine receptor type 1 (Homo sapiens); assay: Inhibition of CXCR1-mediated chemotaxis in Ba/F3 cells expressing human CXCR1 at >10000 nM; assay type: cell-based; conditions: BaF3

| IC50 [1] [nM] | IC50 [2] [nM] | AUC [3] [µM·h] | Activity [4] | Activity [5] | Structure (SMILES) |
| --- | --- | --- | --- | --- | --- |
| 4.7 | 463 |  |  |  | CCC(Nc1c(Nc2cccc(C(=O)N(C)C)c2O)c(=O)c1=O)c1ccc(Br)o1 (stereo not given) |
| 5 | 67 |  |  |  | CCC(Nc1c(Nc2cccc(C(=O)N(C)C)c2O)c(=O)c1=O)c1ccco1 (stereo not given) |
| 94 |  |  | inactive |  | CCC(Nc1c(Nc2cccc(C(=O)N(C)C)c2O)c(=O)c1=O)c1ccc(CN(C)C)o1 (stereo not given) |
| 9.8 | 302 |  |  |  | CCC(Nc1c(Nc2cccc(C(=O)N(C)C)c2O)c(=O)c1=O)c1ccno1 (stereo not given) |
| 4.1 | 854 |  |  |  | CCc1ccc(C(CC)Nc2c(Nc3cccc(C(=O)N(C)C)c3O)c(=O)c2=O)o1 (stereo not given) |
| 17.2 | 6060 |  |  |  | CCC(Nc1c(Nc2cccc(C(=O)N(C)C)c2O)c(=O)c1=O)c1ccc(C(F)(F)F)o1 (stereo not given) |
| 4.5 | 100 |  |  |  | CCC(Nc1c(Nc2cccc(C(=O)N(C)C)c2O)c(=O)c1=O)c1cc(Cl)co1 (stereo not given) |
| 87 | 3430 |  |  |  | CCC(Nc1c(Nc2cccc(C(=O)N(C)C)c2O)c(=O)c1=O)c1ccc(-c2cccc(C(F)(F)F)c2)o1 (stereo not given) |
| 2.8 | 182 |  |  |  | CCC(Nc1c(Nc2cccc(C(=O)N(C)C)c2O)c(=O)c1=O)c1ccc(CO)o1 (stereo not given) |
| 6.8 | 568 |  |  |  | CCC(Nc1c(Nc2cccc(C(=O)N(C)C)c2O)c(=O)c1=O)c1ccc(C(F)F)o1 (stereo not given) |
| 9.5 | 526 |  |  |  | CCC(Nc1c(Nc2cccc(C(=O)N(C)C)c2O)c(=O)c1=O)c1cc(-c2ccncc2)co1 (stereo not given) |
| 150 |  |  | inactive |  | CCC(Nc1c(Nc2cccc(C(=O)N(C)C)c2O)c(=O)c1=O)c1ccc(-c2ccccc2C(F)(F)F)o1 (stereo not given) |
| 171 |  |  | inactive |  | CCC(Nc1c(Nc2cccc(C(=O)N(C)C)c2O)c(=O)c1=O)c1ccc(C(=O)N(C)C)o1 (stereo not given) |
| 3.5 | 412 |  |  |  | CCC(Nc1c(Nc2cccc(C(=O)N(C)C)c2O)c(=O)c1=O)c1cc2ccccc2o1 (stereo not given) |
| 49 | 4870 |  |  |  | CCC(Nc1c(Nc2cccc(C(=O)N(C)C)c2O)c(=O)c1=O)c1ccc(-c2ccccc2Cl)o1 (stereo not given) |
| 4.8 | 275 |  |  |  | CCC(Nc1c(Nc2cccc(C(=O)N(C)C)c2O)c(=O)c1=O)c1ccc(Cl)o1 (stereo not given) |
| 3.3 | 148 |  |  | inactive | CC[C@@H](Nc1c(Nc2cccc(C(=O)N(C)C)c2O)c(=O)c1=O)c1ccccn1 |
| 5 | 93 |  |  |  | CCC(Nc1c(Nc2cccc(C(=O)N(C)C)c2O)c(=O)c1=O)c1cc(Br)co1 (stereo not given) |
| 58 | 3380 |  |  |  | CCC(Nc1c(Nc2cccc(C(=O)N(C)C)c2O)c(=O)c1=O)c1ccc(-c2cccc(Cl)c2)o1 (stereo not given) |
| 4.6 | 244 |  |  |  | CC[C@@H](Nc1c(Nc2cccc(C(=O)N(C)C)c2O)c(=O)c1=O)c1ccc(Cl)o1 |
| 6.1 | 150 |  |  |  | CCC(Nc1c(Nc2cccc(C(=O)N(C)C)c2O)c(=O)c1=O)c1cc(-c2ccccc2)co1 (stereo not given) |
| 815 |  |  | inactive |  | CCC(Nc1c(Nc2cccc(C(=O)N(C)C)c2O)c(=O)c1=O)c1cccn1C (stereo not given) |
| 8.2 | 221 |  |  |  | CCC(Nc1c(Nc2cccc(C(=O)N(C)C)c2O)c(=O)c1=O)c1cc(-c2ccsc2)co1 (stereo not given) |

The next lines start with the compound.

| Structure (SMILES) | IC50 [1] [nM] | IC50 [2] [nM] | AUC [3] [µM·h] | Activity [4] | Activity [5] |
| --- | --- | --- | --- | --- | --- |
| CCC(Nc1c(Nc2cccc(C(=O)N(C)C)c2O)c(=O)c1=O)c1cccs1 (stereo not given) | 6.2 | 179 |  |  |  |
| CCC(Nc1c(Nc2cccc(C(=O)N(C)C)c2O)c(=O)c1=O)c1nc(C)no1 (stereo not given) | 8.2 | 289 |  |  |  |
| CCC(Nc1c(Nc2cccc(C(=O)N(C)C)c2O)c(=O)c1=O)c1ncco1 (stereo not given) | 8.6 | 795 |  |  |  |
| CC[C@@H](Nc1c(Nc2cccc(C(=O)N(C)C)c2O)c(=O)c1=O)c1cc(Cl)co1 | 3.8 | 62 | 21.5 |  |  |
| CCC(Nc1c(Nc2cccc(C(=O)N(C)C)c2O)c(=O)c1=O)c1ccc(Cl)s1 (stereo not given) | 6.2 | 1110 |  |  |  |
| CCC(Nc1c(Nc2cccc(C(=O)N(C)C)c2O)c(=O)c1=O)c1cc(C)on1 (stereo not given) | 7.5 | 224 |  |  |  |
| CCC(Nc1c(Nc2cccc(C(=O)N(C)C)c2O)c(=O)c1=O)c1cocn1 (stereo not given) | 10.9 | 805 |  |  |  |
| CC[C@@H](Nc1c(Nc2cccc(C(=O)N(C)C)c2O)c(=O)c1=O)c1ccsc1 | 3.4 | 104 |  |  |  |
| CC[C@@H](Nc1c(Nc2cccc(C(=O)N(C)C)c2O)c(=O)c1=O)c1cc(Br)co1 | 3.5 | 55 | 33.4 |  |  |
| CC[C@@H](Nc1c(Nc2cccc(C(=O)N(C)C)c2O)c(=O)c1=O)c1cc(C)on1 | 6.3 | 171 | 3.7 |  | inactive |
| CCC(Nc1c(Nc2cccc(C(=O)N(C)C)c2O)c(=O)c1=O)c1ccsc1 (stereo not given) | 5.8 | 165 |  |  |  |
| CCC(Nc1c(Nc2cccc(C(=O)N(C)C)c2O)c(=O)c1=O)c1ccncc1 (stereo not given) | 50 | 2860 |  |  |  |
| CCC(Nc1c(Nc2cccc(C(=O)N(C)C)c2O)c(=O)c1=O)c1sccc1Cl (stereo not given) | 21 | 1370 |  |  |  |
| CCC(Nc1c(Nc2cccc(C(=O)N(C)C)c2O)c(=O)c1=O)c1occc1Br (stereo not given) | 16.5 | 1020 |  |  |  |
| CCC(Nc1c(Nc2cccc(C(=O)N(C)C)c2O)c(=O)c1=O)c1nccs1 (stereo not given) | 9.8 | 703 |  |  |  |
| CCC(Nc1c(Nc2cccc(C(=O)N(C)C)c2O)c(=O)c1=O)c1ccoc1 (stereo not given) | 8 | 812 |  |  |  |
| CCC(Nc1c(Nc2cccc(C(=O)N(C)C)c2O)c(=O)c1=O)c1cc(-c2c(C)noc2C)co1 (stereo not given) | 7.6 | 345 |  |  |  |
